Reference: patent US8716309B2, “Pharmaceutical composition comprising pyridone derivatives” (priority 2011, dated 2014)
Like-named read-outs stand apart in the source and are kept apart here.

Tests used:
[1] = tested on: Male ICR mice; test: Novel Object Recognition Test (NORT), MK-801 induced amnesia; format: in vivo; settings: Mus musculus; ip; dose at which the relative RI is given; doses 0.03˜3 mg/kg; read-out: NORT MED
[2] = target: human α7 nAChR (Homo sapiens, UniProt P36544); test: cell-based; settings: EC50 of human α7nAChR(nM), HEK293T/17 cells transfected with human α7 nAChR; PNU-120596 added; relative to epibatidine 1 μM positive control
[3] = tested on: Male ICR mice; test: Novel Object Recognition Test (NORT), MK-801 induced amnesia; format: in vivo; settings: Mus musculus; po; dose at which the relative RI is given; doses 0.03˜3 mg/kg; read-out: NORT MED
Text: A NORT, which was first introduced by Ennaceur and Delacour, is a cognitive memory test for measuring whether rats are able to remember objects with which they have had previous experience based on the nature of rats, i.e., preference to explore novel objects [Ennaceur A and Delacour J (1988) A new one-trial test for neurobiological studies of memory in rats. 1; Behavioral data. Behavioral Brain Res. 31; 47-59]. This NOR test is a popular experimental method for measuring changes in memory of objects in rodents administered with either an amnesia-inducing drug or other general drugs, by which memory recovery efficacy of a test drug in the rodents administered with the amnesia-inducing drug is explored. In the present example, the test was performed in accord with the description of Bevins and Besheer [Bevins, R. A. & Besheer, J. Object recognition in rats and mice; a one-trial non-matching-to-sample learning task to study ‘recognition memory’. Nat. Protoc. 2006; 1(3); 1306-11. (2006)]. Male ICR mice (available from Orient Bio Inc., Korea) weighing from about 20 g to about 32 g were orally administered a test compound dissolved in a 30% PEG at doses of 0.03˜3 mg/kg and 10 ml/kg body weight. 30 minutes after the administration, MK-801 (available from Sigma) dissolved in saline was subcutaneously administered at doses of 0.1 mg/kg and 10 ml/kg body weight to induce amnesia. About 30 minutes after the administration of MK-801, the mice were allowed to explore a rectangular stainless steel pillar or a circular plastic pillar which was previously placed in a box for about 5 minutes. About 24 hours after the exploration, one of the two objects previously presented was replaced with a new one (i.e., to include one rectangular stainless steel pillar and one circular plastic pillar), the times they took to explore were measured for about 5 minutes. A recognition index (RI) was defined as: [(Exploration time for novel object in test compound group/Exploration time for all objects in test compound group)/(Exploration time for novel object in MK801 group/Exploration time for all objects in MK801 group)×100].
Table 2 below presents relative RIs of the compounds at a minimal dose […].

Chain of human α7 nAChR (P36544 23-502): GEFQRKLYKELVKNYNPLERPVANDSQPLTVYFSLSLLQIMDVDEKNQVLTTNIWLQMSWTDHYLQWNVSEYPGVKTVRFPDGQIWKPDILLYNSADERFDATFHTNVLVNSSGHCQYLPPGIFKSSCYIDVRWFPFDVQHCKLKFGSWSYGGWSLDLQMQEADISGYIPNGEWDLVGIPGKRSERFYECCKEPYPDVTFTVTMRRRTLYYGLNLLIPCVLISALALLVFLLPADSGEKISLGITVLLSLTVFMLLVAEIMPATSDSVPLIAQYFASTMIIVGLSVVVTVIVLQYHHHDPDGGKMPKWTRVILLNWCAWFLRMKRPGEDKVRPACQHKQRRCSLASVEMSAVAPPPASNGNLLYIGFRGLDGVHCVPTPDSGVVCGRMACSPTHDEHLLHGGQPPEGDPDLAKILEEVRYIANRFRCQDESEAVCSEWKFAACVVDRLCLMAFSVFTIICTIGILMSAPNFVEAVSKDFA

SMILES | minimal effective dose [1] [mg/kg] | EC50 [2] [nM] | minimal effective dose at 3 mg/kg [3] [mg/kg] | minimal effective dose [3] [mg/kg]
O=C(N[C@H]1CN2CCC1CC2)c1ccc(=O)n(-c2ccc(Cl)cc2)c1 [Example 5, N-[(3R)-1-azabicyclo[2.2.2]octan-3-yl]-1-(4-chlorophenyl)-6-oxopyridine-3-carboxamide] | 0.1 | > 1000 | – | –
O=C(NC1CN2CCC1CC2)c1ccc(=O)n(-c2ccc(-c3ccccc3)cc2)c1 (centres unmarked) [Example 65, N-(1-azabicyclo[2.2.2]octan-3-yl)-1-(4-phenylphenyl)-6-oxo-3-pyridinecarboxamide] | 1 | 100 to 500 | – | –
CSc1ccccc1-n1cc(C(=O)NC2CN3CCC2CC3)ccc1=O (centres unmarked) [Example 77, N-(1-azabicyclo[2.2.2]octan-3-yl)-1-[2-(methylthio)phenyl]-6-oxo-3-pyridinecarboxamide] | 0.1 | < 100 | – | –
CSc1cc(C)ccc1-n1cc(C(=O)N[C@@H]2CN3CCC2CC3)ccc1=O [Example 91, N-[(3S)-1-azabicyclo[2.2.2]octan-3-yl]-1-[4-methyl-2-(methylthio)phenyl]-6-oxo-3-pyridinecarboxamide] | – | 100 to 500 | 3 | –
O=C(NC1CN2CCC1CC2)c1ccc(=O)n(-c2ccccc2-c2nccs2)c1 (centres unmarked) [Example 104, N-(1-azabicyclo[2.2.2]octan-3-yl)-6-oxo-1-[2-(2-thiazolyl)phenyl]-3-pyridinecarboxamide] | – | 100 to 500 | – | 3
O=C(NC1CN2CCC1CC2)c1ccc(=O)n(-c2ccc(Cl)cc2-c2nccs2)c1 (centres unmarked) [Example 105, N-(1-azabicyclo[2.2.2]octan-3-yl)-1-[4-chloro-2-(2-thiazolyl)phenyl]-6-oxo-3-pyridine carboxamide] | – | 500 to 1000 | – | 0.3
Cc1ccc(-c2ccc(-n3cc(C(=O)NC4CN5CCC4CC5)ccc3=O)c(Cl)c2)s1 (centres unmarked) [Example 109, N-(1-azabicyclo[2.2.2]octan-3-yl)-1-[2-chloro-4-(5-methyl-2-thiophenyl)phenyl]-6-oxo-3-pyridinecarboxamide] | – | 100 to 500 | – | 3
